{"source": "patent US12723063B2", "about": "“GIPR-agonist compounds” (Eli Lilly and Company, priority 2019, dated 2026)", "key": {"[1]": {"biological_target": "T1, human GLP-1R (Homo sapiens, UniProt P43220)", "T1 construct": "expressed in transfected cells; crude membranes", "T1 sequence (P43220 24-463)": "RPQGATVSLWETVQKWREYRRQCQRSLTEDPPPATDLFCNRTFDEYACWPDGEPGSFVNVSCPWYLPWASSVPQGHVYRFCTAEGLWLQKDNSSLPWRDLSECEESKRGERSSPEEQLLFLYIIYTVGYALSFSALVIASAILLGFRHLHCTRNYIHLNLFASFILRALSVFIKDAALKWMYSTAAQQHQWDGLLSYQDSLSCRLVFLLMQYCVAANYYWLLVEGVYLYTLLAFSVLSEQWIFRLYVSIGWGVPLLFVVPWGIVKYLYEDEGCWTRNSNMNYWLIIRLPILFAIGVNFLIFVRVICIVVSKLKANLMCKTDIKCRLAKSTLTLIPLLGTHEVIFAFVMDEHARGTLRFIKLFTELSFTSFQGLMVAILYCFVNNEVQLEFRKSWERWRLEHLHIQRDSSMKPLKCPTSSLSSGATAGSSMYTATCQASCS", "test": "[125I]-GLP-1 binding, SPA with WGA beads, 0.1% bacitracin", "details": "geometric mean, read-out: hGLP1R Ki", "procedure,_shortened": "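Binding buffer was 25 mM HEPES pH 7.4 with 2.5 mM CaCl2, 1 mM MgCl2, 0.1% (w/v) bacitracin, 0.003% Tween-20 and EDTA-free protease inhibitors. Four-parameter regression gave IC50, converted to Ki (geometric mean, SEM, n independent days).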"}, "[2]": {"biological_target": "T2, human GIPR (Homo sapiens, UniProt P48546)", "T2 construct": "expressed in transfected cells; crude membranes", "T2 sequence (P48546 22-466)": "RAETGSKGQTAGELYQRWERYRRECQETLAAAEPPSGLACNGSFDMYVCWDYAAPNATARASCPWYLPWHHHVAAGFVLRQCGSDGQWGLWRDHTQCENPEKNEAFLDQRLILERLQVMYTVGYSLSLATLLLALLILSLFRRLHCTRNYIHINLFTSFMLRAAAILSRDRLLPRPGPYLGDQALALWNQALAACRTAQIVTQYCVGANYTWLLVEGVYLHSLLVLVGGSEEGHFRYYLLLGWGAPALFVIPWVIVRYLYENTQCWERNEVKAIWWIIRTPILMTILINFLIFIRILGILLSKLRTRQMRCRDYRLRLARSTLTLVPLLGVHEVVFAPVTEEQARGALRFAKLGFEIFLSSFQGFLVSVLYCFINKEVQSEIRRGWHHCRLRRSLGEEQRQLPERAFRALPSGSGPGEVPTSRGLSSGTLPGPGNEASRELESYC", "test": "[125I]-GIP binding, SPA with WGA beads, 0.1% bacitracin", "details": "geometric mean, read-out: hGIPR Ki", "procedure,_shortened": "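Ki values are geometric means (SEM, n independent days), derived from four-parameter nonlinear regression of IC50. Membranes came from hGIPR-expressing CHO cells.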"}}, "note": "*1 amine or outer side, *2 acyl side, *3 side chain or, on linkers, in order; H or OH if unused. Where a SMILES comes first, the peptide text is derived from it. Side-chain parts run from the residue outwards. [ ]: non-standard residue; d: D form. The star is where a group is joined. C20 diacid = O=C(O)CCCCCCCCCCCCCCCCCCC(=O)*; αMePhe(2-F) = C[C@](N)(Cc1ccccc1F)C(=O)O; γGlu = O=C(O)[C@H](CCC(=O)[*:2])N[*:1]; 4Pal = N[C@@H](Cc1ccncc1)C(=O)O; αMeL = CC(C)C[C@](C)(N)C(=O)O; AEEA = NCCOCCOCC(=O)O; Aib = CC(C)(N)C(=O)O"}
{"smiles": "CC[C@H](C)[C@H](NC(=O)[C@H](Cc1ccccc1)NC(=O)[C@@H](NC(=O)CNC(=O)[C@H](CCC(=O)O)NC(=O)C(C)(C)NC(=O)[C@@H](N)Cc1ccc(O)cc1)[C@@H](C)O)C(=O)N[C@@H](CO)C(=O)N[C@@H](CC(=O)O)C(=O)N[C@@H](Cc1ccc(O)cc1)C(=O)N[C@@H](CO)C(=O)N[C@H](C(=O)N[C@@](C)(CC(C)C)C(=O)N[C@@H](CC(C)C)C(=O)N[C@@H](CC(=O)O)C(=O)N[C@@H](CCCCN)C(=O)N[C@@H](CCCCNC(=O)COCCOCCNC(=O)COCCOCCNC(=O)CC[C@H](NC(=O)CCCCCCCCCCCCCCCCCCC(=O)O)C(=O)O)C(=O)N[C@@H](Cc1c[nH]cn1)C(=O)N[C@@H](CCC(N)=O)C(=O)NC(C)(C)C(=O)N[C@@H](CCC(=O)O)C(=O)N[C@@H](Cc1ccccc1)C(=O)N[C@H](C(=O)N[C@@H](CCC(=O)O)C(=O)N[C@@H](Cc1ccncc1)C(=O)N[C@@H](CC(C)C)C(=O)N[C@@H](CC(C)C)C(=O)N[C@@H](C)C(=O)N[C@@H](CCC(N)=O)C(=O)NCC(=O)N1CCC[C@H]1C(=O)N[C@@H](CO)C(=O)N[C@@H](CO)C(=O)NCC(=O)N[C@@H](C)C(=O)N1CCC[C@H]1C(=O)N1CCC[C@H]1C(=O)N1CCC[C@H]1C(=O)N[C@@H](CO)C(N)=O)C(C)C)[C@@H](C)CC", "note": "[Example 57] (H-Y[Aib]EGTFISDYSI[αMeL]LDKK([AEEA-AEEA-γGlu-C20 diacid])HQ[Aib]EFVE[4Pal]LLAQGPSSGAPPPS-NH2)", "values": [{"measurement": "Ki", "setting": "[1]", "value": 280, "unit": "nM"}, {"measurement": "Ki", "setting": "[2]", "value": 0.0154, "unit": "nM"}]}
{"smiles": "CC[C@H](C)[C@H](NC(=O)[C@H](Cc1ccccc1)NC(=O)[C@@H](NC(=O)CNC(=O)[C@H](CCC(=O)O)NC(=O)C(C)(C)NC(=O)[C@@H](N)Cc1ccc(O)cc1)[C@@H](C)O)C(=O)N[C@@H](CO)C(=O)N[C@@H](CC(=O)O)C(=O)N[C@@H](Cc1ccc(O)cc1)C(=O)N[C@@H](CO)C(=O)N[C@H](C(=O)N[C@@](C)(CC(C)C)C(=O)N[C@@H](CC(C)C)C(=O)N[C@@H](CC(=O)O)C(=O)N[C@@H](CCCCN)C(=O)N[C@@H](CCCCNC(=O)COCCOCCNC(=O)COCCOCCNC(=O)CC[C@H](NC(=O)CCCCCCCCCCCCCCCCCCC(=O)O)C(=O)O)C(=O)N[C@@H](Cc1c[nH]cn1)C(=O)N[C@@H](CCC(N)=O)C(=O)NC(C)(C)C(=O)N[C@@H](CC(=O)O)C(=O)N[C@@H](Cc1ccccc1)C(=O)N[C@H](C(=O)N[C@@H](CCC(=O)O)C(=O)N[C@@H](Cc1ccc(O)cc1)C(=O)N[C@@H](CC(C)C)C(=O)N[C@@H](CC(C)C)C(=O)N[C@@H](C)C(=O)NCC(=O)NCC(=O)N1CCC[C@H]1C(=O)N[C@@H](CO)C(=O)N[C@@H](CO)C(=O)NCC(=O)N[C@@H](C)C(=O)N1CCC[C@H]1C(=O)N1CCC[C@H]1C(=O)N1CCC[C@H]1C(=O)N[C@@H](CO)C(N)=O)C(C)C)[C@@H](C)CC", "note": "[Example 53] (H-Y[Aib]EGTFISDYSI[αMeL]LDKK([AEEA-AEEA-γGlu-C20 diacid])HQ[Aib]DFVEYLLAGGPSSGAPPPS-NH2)", "values": [{"measurement": "Ki", "setting": "[1]", "value": 62.9, "unit": "nM"}, {"measurement": "Ki", "setting": "[2]", "value": 0.0184, "unit": "nM"}]}
{"smiles": "CC[C@H](C)[C@H](NC(=O)[C@H](CO)NC(=O)[C@H](Cc1ccc(O)cc1)NC(=O)[C@H](CC(=O)O)NC(=O)[C@H](CO)NC(=O)[C@@H](NC(=O)[C@](C)(Cc1ccccc1F)NC(=O)[C@@H](NC(=O)CNC(=O)[C@H](CCC(=O)O)NC(=O)C(C)(C)NC(=O)[C@@H](N)Cc1ccc(O)cc1)[C@@H](C)O)[C@@H](C)CC)C(=O)N[C@@H](C)C(=O)N[C@@H](CC(C)C)C(=O)N[C@@H](CC(=O)O)C(=O)N[C@@H](CCCCN)C(=O)N[C@@H](CCCCNC(=O)COCCOCCNC(=O)COCCOCCNC(=O)CC[C@H](NC(=O)CCCCCCCCCCCCCCCCCCC(=O)O)C(=O)O)C(=O)N[C@@H](Cc1c[nH]cn1)C(=O)N[C@@H](CCC(N)=O)C(=O)NC(C)(C)C(=O)N[C@@H](CCC(=O)O)C(=O)N[C@@H](Cc1ccccc1)C(=O)N[C@H](C(=O)N[C@@H](CC(N)=O)C(=O)N[C@@H](Cc1ccc(O)cc1)C(=O)N[C@@H](CC(C)C)C(=O)N[C@@H](CC(C)C)C(=O)N[C@@H](C)C(=O)N[C@H](C(=O)NCC(=O)N1CCC[C@H]1C(=O)N[C@@H](CO)C(=O)N[C@@H](CO)C(=O)NCC(=O)N[C@@H](C)C(=O)N1CCC[C@H]1C(=O)N1CCC[C@H]1C(=O)N1CCC[C@H]1C(=O)N[C@@H](CO)C(N)=O)[C@@H](C)O)C(C)C", "note": "[Example 34] (H-Y[Aib]EGT[αMePhe(2-F)]ISDYSIALDKK([AEEA-AEEA-γGlu-C20 diacid])HQ[Aib]EFVNYLLATGPSSGAPPPS-NH2)", "values": [{"measurement": "Ki", "setting": "[1]", "value": 201, "unit": "nM"}, {"measurement": "Ki", "setting": "[2]", "value": 0.034, "unit": "nM"}]}
{"smiles": "CC[C@H](C)[C@H](NC(=O)[C@H](CO)NC(=O)[C@H](Cc1ccc(O)cc1)NC(=O)[C@H](CC(=O)O)NC(=O)[C@H](CO)NC(=O)[C@@H](NC(=O)[C@](C)(CC(C)C)NC(=O)[C@@H](NC(=O)CNC(=O)[C@H](CCC(=O)O)NC(=O)C(C)(C)NC(=O)[C@@H](N)Cc1ccc(O)cc1)[C@@H](C)O)[C@@H](C)CC)C(=O)N[C@@H](C)C(=O)N[C@@H](CC(C)C)C(=O)N[C@@H](CC(=O)O)C(=O)N[C@@H](CCCCN)C(=O)N[C@@H](CCCCNC(=O)COCCOCCNC(=O)COCCOCCNC(=O)CC[C@H](NC(=O)CCCCCCCCCCCCCCCCCCC(=O)O)C(=O)O)C(=O)N[C@@H](Cc1c[nH]cn1)C(=O)N[C@@H](CCC(N)=O)C(=O)NC(C)(C)C(=O)N[C@@H](CCC(=O)O)C(=O)N[C@@H](Cc1ccccc1)C(=O)N[C@H](C(=O)N[C@@H](CC(N)=O)C(=O)N[C@@H](Cc1ccc(O)cc1)C(=O)N[C@@H](CC(C)C)C(=O)N[C@@H](CC(C)C)C(=O)N[C@@H](C)C(=O)N[C@H](C(=O)NCC(=O)N1CCC[C@H]1C(=O)N[C@@H](CO)C(=O)N[C@@H](CO)C(=O)NCC(=O)N[C@@H](C)C(=O)N1CCC[C@H]1C(=O)N1CCC[C@H]1C(=O)N1CCC[C@H]1C(=O)N[C@@H](CO)C(N)=O)[C@@H](C)O)C(C)C", "note": "[Example 35] (H-Y[Aib]EGT[αMeL]ISDYSIALDKK([AEEA-AEEA-γGlu-C20 diacid])HQ[Aib]EFVNYLLATGPSSGAPPPS-NH2)", "values": [{"measurement": "Ki", "setting": "[1]", "value": 177, "unit": "nM"}, {"measurement": "Ki", "setting": "[2]", "value": 0.0351, "unit": "nM"}]}
{"smiles": "CC[C@H](C)[C@H](NC(=O)[C@H](Cc1ccccc1)NC(=O)[C@@H](NC(=O)CNC(=O)[C@H](CCC(=O)O)NC(=O)C(C)(C)NC(=O)[C@@H](N)Cc1ccc(O)cc1)[C@@H](C)O)C(=O)N[C@@H](CO)C(=O)N[C@@H](CC(=O)O)C(=O)N[C@@H](Cc1ccc(O)cc1)C(=O)N[C@@H](CO)C(=O)N[C@H](C(=O)N[C@@](C)(CC(C)C)C(=O)N[C@@H](CC(C)C)C(=O)N[C@@H](CC(=O)O)C(=O)N[C@@H](CCCCN)C(=O)N[C@@H](CCCCNC(=O)COCCOCCNC(=O)COCCOCCNC(=O)CC[C@H](NC(=O)CCCCCCCCCCCCCCCCCCC(=O)O)C(=O)O)C(=O)N[C@@H](Cc1c[nH]cn1)C(=O)N[C@@H](CCC(N)=O)C(=O)NC(C)(C)C(=O)N[C@@H](CCC(=O)O)C(=O)N[C@@H](Cc1ccccc1)C(=O)N[C@H](C(=O)N[C@@H](CCC(=O)O)C(=O)N[C@@H](Cc1ccc(O)cc1)C(=O)N[C@@H](CC(C)C)C(=O)N[C@@H](CC(C)C)C(=O)N[C@@H](CCC(=O)O)C(=O)N[C@H](C(=O)NCC(=O)N1CCC[C@H]1C(=O)N[C@@H](CO)C(=O)N[C@@H](CO)C(=O)NCC(=O)N[C@@H](C)C(=O)N1CCC[C@H]1C(=O)N1CCC[C@H]1C(=O)N1CCC[C@H]1C(=O)N[C@@H](CO)C(N)=O)[C@@H](C)O)C(C)C)[C@@H](C)CC", "note": "[Example 64] (H-Y[Aib]EGTFISDYSI[αMeL]LDKK([AEEA-AEEA-γGlu-C20 diacid])HQ[Aib]EFVEYLLETGPSSGAPPPS-NH2)", "values": [{"measurement": "Ki", "setting": "[1]", "value": 477, "unit": "nM"}, {"measurement": "Ki", "setting": "[2]", "value": 0.022, "unit": "nM"}]}
{"smiles": "CC[C@H](C)[C@H](NC(=O)[C@H](Cc1ccccc1)NC(=O)[C@@H](NC(=O)CNC(=O)[C@H](CCC(=O)O)NC(=O)C(C)(C)NC(=O)[C@@H](N)Cc1ccc(O)cc1)[C@@H](C)O)C(=O)N[C@@H](CO)C(=O)N[C@@H](CC(=O)O)C(=O)N[C@@H](Cc1ccc(O)cc1)C(=O)N[C@@H](CO)C(=O)N[C@H](C(=O)N[C@@](C)(CC(C)C)C(=O)N[C@@H](CC(C)C)C(=O)N[C@@H](CC(=O)O)C(=O)N[C@@H](CCCCN)C(=O)N[C@@H](CCCCNC(=O)COCCOCCNC(=O)COCCOCCNC(=O)CC[C@H](NC(=O)CCCCCCCCCCCCCCCCCCC(=O)O)C(=O)O)C(=O)N[C@@H](Cc1c[nH]cn1)C(=O)N[C@@H](CCC(N)=O)C(=O)NC(C)(C)C(=O)N[C@@H](CC(=O)O)C(=O)N[C@@H](Cc1ccccc1)C(=O)N[C@H](C(=O)N[C@@H](CCC(=O)O)C(=O)N[C@@H](Cc1ccncc1)C(=O)N[C@@H](CC(C)C)C(=O)N[C@@H](CC(C)C)C(=O)N[C@@H](CCC(=O)O)C(=O)N[C@H](C(=O)NCC(=O)N1CCC[C@H]1C(=O)N[C@@H](CO)C(=O)N[C@@H](CO)C(=O)NCC(=O)N[C@@H](C)C(=O)N1CCC[C@H]1C(=O)N1CCC[C@H]1C(=O)N1CCC[C@H]1C(=O)N[C@@H](CO)C(N)=O)[C@@H](C)O)C(C)C)[C@@H](C)CC", "note": "[Example 45] (H-Y[Aib]EGTFISDYSI[αMeL]LDKK([AEEA-AEEA-γGlu-C20 diacid])HQ[Aib]DFVE[4Pal]LLETGPSSGAPPPS-NH2)", "values": [{"measurement": "Ki", "setting": "[1]", "value": "> 909", "unit": "nM"}, {"measurement": "Ki", "setting": "[2]", "value": 0.0663, "unit": "nM"}]}
